Experimental data published in ChEMBL document CHEMBL5543069, “DW71177: A novel [1,2,4]triazolo[4,3-a]quinoxaline-based potent and BD1-Selective BET inhibitor for the treatment of acute myeloid leukemia” (Eur J Med Chem, 2024).
One block for each compound: values may come before it.

Key:
Ty-82 = assay: Cytotoxicity against human Ty-82 cells assessed as growth inhibition incubated for 72 hrs by WST-1 assay; conditions: TY82, 72 h
[1] = biological target: T1, Bromodomain-containing protein 4 (Homo sapiens, UniProt O60885); assay: Binding affinity to human BRD4 BD1 expressed in Escherichia coli BL21 (DE3) assessed as dissociation constant by bromodomain analysis
[2] = biological target: T1, Bromodomain-containing protein 4; assay: Binding affinity to human BRD4 BD2 expressed in Escherichia coli BL21 (DE3) assessed as dissociation constant by bromodomain analysis
[3] = Half life in rat at 5 mg/kg, po; conditions: in vivo
MV4-11 = assay: Cytotoxicity against human MV4-11 cells assessed as growth inhibition incubated for 72 hrs by WST-1 assay; conditions: MV4-11, 72 h
in vivo [4] = conditions: rat, po, 5 mg/kg
Description: AUC (0 to t) in rat at 5 mg/kg, po

in vivo [5] = conditions: rat, po, 5 mg/kg; remark: listed apart in the source
Description: AUC (0 to infinity) in rat at 5 mg/kg, po

in vivo [6] = conditions: rat, po, 5 mg/kg; remark: listed apart in the source
Description: Cmax in rat at 5 mg/kg, po

in vivo [7] = conditions: rat, po, 5 mg/kg; remark: listed apart in the source
Description: Tmax in rat at 5 mg/kg, po

[8] = biological target: T1, Bromodomain-containing protein 4; assay: Binding affinity to human BRD4 BD1 expressed in Escherichia coli BL21 (DE3) assessed as dissociation constant by ITC analysis
[9] = biological target: T1, Bromodomain-containing protein 4; assay: Binding affinity to human BRD4 BD2 expressed in Escherichia coli BL21 (DE3) assessed as dissociation constant by ITC analysis
[10] = Antiproliferative activity against human SNU-2535 cells assessed as growth inhibition incubated for 72 hrs by WST-1 assay; conditions: SNU-2535, 72 h
BJAB = assay: Antiproliferative activity against human BJAB cells assessed as growth inhibition incubated for 72 hrs by WST-1 assay
MOLT-4 = assay: Antiproliferative activity against human MOLT-4 cells assessed as growth inhibition incubated for 72 hrs by WST-1 assay; conditions: MOLT-4, 72 h
THP-1 = assay: Antiproliferative activity against human THP-1 cells assessed as growth inhibition incubated for 72 hrs by WST-1 assay; conditions: THP-1, 72 h
T-24 = assay: Antiproliferative activity against human T24 cells assessed as growth inhibition incubated for 72 hrs by WST-1 assay; conditions: T-24, 72 h
Raji = assay: Antiproliferative activity against human Raji cells assessed as growth inhibition incubated for 72 hrs by WST-1 assay
Pfeiffer = assay: Antiproliferative activity against human Pfeiffer cells assessed as growth inhibition incubated for 72 hrs by WST-1 assay
NCI-H1975 = assay: Antiproliferative activity against human NCI-H1975 cells assessed as growth inhibition incubated for 72 hrs by WST-1 assay; conditions: NCI-H1975, 72 h
Daudi = assay: Antiproliferative activity against human Daudi cells assessed as growth inhibition incubated for 72 hrs by WST-1 assay
SUD4 = assay: Antiproliferative activity against human SU-DHL-4 cells assessed as growth inhibition incubated for 72 hrs by WST-1 assay; conditions: SU-DHL-4, 72 h
KU-19-19 = assay: Antiproliferative activity against human KU-19-19 cells assessed as growth inhibition incubated for 72 hrs by WST-1 assay; conditions: KU-19-19, 72 h
U2932 = assay: Antiproliferative activity against human U2932 cells assessed as growth inhibition incubated for 72 hrs by WST-1 assay; conditions: U2932, 72 h
K562 = assay: Antiproliferative activity against human K562 cells assessed as growth inhibition incubated for 72 hrs by WST-1 assay; conditions: K562, 72 h
LS-1034 = assay: Antiproliferative activity against human LS1034 cells assessed as growth inhibition incubated for 72 hrs by WST-1 assay; conditions: LS-1034, 72 h
NCI-H1666 = assay: Antiproliferative activity against human NCI-H1666 cells assessed as growth inhibition incubated for 72 hrs by WST-1 assay; conditions: NCI-H1666, 72 h

SMILES: Cc1nnc2c(NCCCCNC(=O)OC(C)(C)C)nc3cc(C(=O)O)ccc3n12
- GI50 (Ty-82): 650 nM
- Kd [1]: 36 nM
- Kd [2]: 220 nM

SMILES: COc1ccc2c(c1)nc(OCCCCNC(=O)CC(C)C)c1nnc(C)n12
- GI50 (Ty-82): > 10000 nM
- Kd [1]: > 5000 nM
- Kd [2]: > 5000 nM
- GI50 (MV4-11): > 10000 nM

SMILES: Cc1nnc2c(NCCCCCCNC(=O)OC(C)(C)C)nc3ccccc3n12
- GI50 (Ty-82): > 10000 nM
- Kd [1]: > 5000 nM
- Kd [2]: > 5000 nM

SMILES: COc1ccc2c(c1)nc(NCCCCNC(=O)CC(C)C)c1nnc(C)n12
- Kd [8]: 6.7 nM
- Kd [9]: 293 nM

SMILES: Cc1sc2c(c1C)C(c1ccc(Cl)cc1)=N[C@@H](CC(=O)Nc1ccc(O)cc1)c1nnc(C)n1-2 [BIRABRESIB]
- GI50 [10]: > 10000 nM
- GI50 (BJAB): 130 nM
- GI50 (Ty-82): 67 nM
- GI50 (MOLT-4): > 10000 nM
- GI50 (MV4-11): 30 nM
- GI50 (THP-1): 40 nM
- GI50 (T-24): 7900 nM
- GI50 (Raji): > 10000 nM
- GI50 (Pfeiffer): 210 nM
- GI50 (NCI-H1975): > 10000 nM
- GI50 (Daudi): 4000 nM
- GI50 (SUD4): 2800 nM
- GI50 (KU-19-19): > 10000 nM
- GI50 (U2932): > 10000 nM
- GI50 (K562): > 10000 nM
- GI50 (LS-1034): > 10000 nM
- GI50 (NCI-H1666): > 10000 nM

The next lines start with results.

- Kd [1]: 32 nM
- Kd [2]: 110 nM
SMILES: Cc1nnc2c(NCCCCNC(=O)c3ccccc3Cl)nc3ccccc3n12
- GI50 (Ty-82): 9600 nM

- Kd [1]: 40 nM
- half-life [3]: 3.52 h
- Kd [2]: 190 nM
- AUC(0-t) (in vivo [4]): 574 ng·h/mL
- AUC(0-inf) (in vivo [5]): 851 ng·h/mL
- Cmax (in vivo [6]): 180 ng/mL
- Tmax (in vivo [7]): 0.667 h
SMILES: Cc1nnc2c(NCCCCNC(=O)OC(C)(C)C)nc3ccccc3n12
- GI50 (Ty-82): 1000 nM
- GI50 (MV4-11): 980 nM

- Kd [1]: 29 nM
- Kd [2]: 180 nM
SMILES: Cc1nnc2c(NCCCCNC(=O)c3ccccc3)nc3ccccc3n12
- GI50 (Ty-82): 950 nM
- GI50 (MV4-11): 790 nM
